The source of these data is publication PMC8775867, “The Systems of Naringenin with Solubilizers Expand Its Capability to Prevent Neurodegenerative Diseases” (International Journal of Molecular Sciences, 2022).

In brackets after ≈: the same amount, converted by molar mass.

The assay deals with T1, tyrosinase.
T1 construct: gene PPO3
Nature of the assay: L-DOPA oxidation, absorbance […] nm. To be noted: L-DOPA substrate, phosphate buffer pH 6.8, room temperature. It counts as biochemical.

Consider `O=C(O)CCCCCCCC(=O)O` [azelaic acid], for which the IC50 is 5.883 ± 0.023 mg/mL (≈ 31.3 mM).

`O=C1C[C@@H](c2ccc(O)cc2)Oc2cc(O)cc(O)c21` [naringenin] yielded an IC50 (NAR in DMSO) of 4.615 ± 0.089 mg/mL (≈ 17 mM).

As a reminder, the IC50 is the midpoint of a concentration-inhibition curve. A lower IC50 goes with higher potency.
